Results published in paper PMC3729023 (Journal of the American Chemical Society, 2012).

Assays:
Src = Src kinase assay; format: biochemical; conditions: read-out: IC50 (inactive up to); Src pretreated 30 min in the presence of 0.25 mM ATP prior to initiating the kinase reaction
endogenous Lck = endogenous Lck (Homo sapiens, UniProt P06239); test: Competitive profiling with probe 1 in Jurkat cells: Lck; format: cell-based; conditions: inhibitor at 300 nM, then 1 (1 µM, 15 min)
[1] = in humans; cited from earlier work
endogenous Src = endogenous Src (Homo sapiens, UniProt P12931); conditions: Jurkat cells, inhibitor at 300 nM, then 1 (1 µM, 15 min)
Sequence of endogenous Src (P12931 whole entry): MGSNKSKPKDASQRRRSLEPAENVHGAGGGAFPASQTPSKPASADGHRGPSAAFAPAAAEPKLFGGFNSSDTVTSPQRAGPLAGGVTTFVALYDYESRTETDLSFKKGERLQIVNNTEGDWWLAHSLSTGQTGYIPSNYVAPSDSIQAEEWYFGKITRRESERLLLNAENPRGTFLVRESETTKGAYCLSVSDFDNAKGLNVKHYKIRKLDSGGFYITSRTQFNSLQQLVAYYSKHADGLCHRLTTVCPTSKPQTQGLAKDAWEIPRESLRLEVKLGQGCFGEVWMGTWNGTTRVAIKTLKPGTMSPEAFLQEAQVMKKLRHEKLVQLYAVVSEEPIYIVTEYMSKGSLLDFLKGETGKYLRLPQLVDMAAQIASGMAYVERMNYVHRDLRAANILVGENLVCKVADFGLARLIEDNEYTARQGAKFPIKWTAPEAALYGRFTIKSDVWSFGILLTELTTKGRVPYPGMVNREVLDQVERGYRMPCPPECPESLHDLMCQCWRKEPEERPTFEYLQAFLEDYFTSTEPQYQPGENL

endogenous Blk = endogenous Blk (Homo sapiens, UniProt P51451); test: Competitive profiling with probe 1 in Jurkat cells: Blk; format: cell-based; conditions: inhibitor at 300 nM, then 1 (1 µM, 15 min)
Sequence of endogenous Blk (P51451 whole entry): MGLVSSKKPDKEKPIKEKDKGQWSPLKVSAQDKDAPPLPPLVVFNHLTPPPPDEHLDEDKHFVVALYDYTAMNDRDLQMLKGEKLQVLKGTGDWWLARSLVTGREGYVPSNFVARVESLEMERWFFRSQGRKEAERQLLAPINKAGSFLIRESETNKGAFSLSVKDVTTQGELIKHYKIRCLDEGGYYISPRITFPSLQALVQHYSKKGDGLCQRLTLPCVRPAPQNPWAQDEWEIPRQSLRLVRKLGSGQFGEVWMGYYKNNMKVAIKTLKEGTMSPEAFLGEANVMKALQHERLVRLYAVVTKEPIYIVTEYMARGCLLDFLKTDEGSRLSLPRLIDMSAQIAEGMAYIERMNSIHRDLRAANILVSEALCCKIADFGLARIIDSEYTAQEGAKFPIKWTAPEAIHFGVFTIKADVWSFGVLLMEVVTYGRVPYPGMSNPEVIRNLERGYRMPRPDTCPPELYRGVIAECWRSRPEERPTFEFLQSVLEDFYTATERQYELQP

endogenous Fyn = endogenous Fyn (Homo sapiens, UniProt P06241); test: Competitive profiling with probe 1 in Jurkat cells: Fyn; format: cell-based; conditions: inhibitor at 300 nM, then 1 (1 µM, 15 min)
Sequence of endogenous Fyn (P06241 1-534 isoform P06241-2): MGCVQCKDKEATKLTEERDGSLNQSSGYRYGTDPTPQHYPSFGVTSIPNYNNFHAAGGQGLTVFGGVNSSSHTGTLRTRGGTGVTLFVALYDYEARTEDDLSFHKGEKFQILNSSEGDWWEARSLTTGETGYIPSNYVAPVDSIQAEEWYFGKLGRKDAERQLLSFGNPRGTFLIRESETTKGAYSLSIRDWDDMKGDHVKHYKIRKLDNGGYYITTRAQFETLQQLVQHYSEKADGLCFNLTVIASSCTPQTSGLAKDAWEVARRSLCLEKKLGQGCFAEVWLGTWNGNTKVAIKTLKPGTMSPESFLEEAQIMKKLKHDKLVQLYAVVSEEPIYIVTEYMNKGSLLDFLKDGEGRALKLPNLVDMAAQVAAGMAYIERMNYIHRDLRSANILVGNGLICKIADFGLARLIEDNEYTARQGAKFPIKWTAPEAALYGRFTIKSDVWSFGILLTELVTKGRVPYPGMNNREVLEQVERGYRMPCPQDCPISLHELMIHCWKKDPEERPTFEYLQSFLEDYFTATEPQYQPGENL

Sequence of endogenous Lck (P06239 whole entry): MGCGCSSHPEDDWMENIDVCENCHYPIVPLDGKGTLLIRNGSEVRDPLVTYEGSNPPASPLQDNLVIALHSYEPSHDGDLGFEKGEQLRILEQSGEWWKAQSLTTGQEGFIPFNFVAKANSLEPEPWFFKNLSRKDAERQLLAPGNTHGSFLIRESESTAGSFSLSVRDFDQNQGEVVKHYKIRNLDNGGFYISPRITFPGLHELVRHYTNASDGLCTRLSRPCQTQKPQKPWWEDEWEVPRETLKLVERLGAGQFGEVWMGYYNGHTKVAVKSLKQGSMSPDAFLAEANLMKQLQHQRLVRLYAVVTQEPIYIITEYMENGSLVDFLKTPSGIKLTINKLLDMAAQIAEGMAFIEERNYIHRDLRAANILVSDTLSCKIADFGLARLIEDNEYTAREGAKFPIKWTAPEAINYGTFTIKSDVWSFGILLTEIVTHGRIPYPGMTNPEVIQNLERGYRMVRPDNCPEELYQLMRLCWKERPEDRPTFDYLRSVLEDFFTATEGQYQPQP

SMILES | IC50 (Src) | labeling of endogenous Lck by 1 (endogenous Lck) | mean steady-state concentrations [1] | labeling of endogenous Src by 1 (endogenous Src) | labeling of endogenous Blk by 1 (endogenous Blk) | labeling of endogenous Fyn by 1 (endogenous Fyn)
Nc1ncnc2c1ncn2[C@@H]1O[C@H](COC(=O)c2ccc(S(=O)(=O)F)cc2)[C@@H](O)[C@H]1O [FSBA, p-fluorosulfonylbenzoyl adenosine] | > 10 µM | – | – | – | – | –
Cc1ccc(C(=O)Nc2ccc(CN3CCN(C)CC3)c(C(F)(F)F)c2)cc1C#Cc1cnc2cccnn12 [ponatinib] | – | abrogated labeling | 75 to 180 nM | unaffected | abrogated labeling | unaffected
